molecular target: T1, N-formyl peptide receptor 2 (Homo sapiens, UniProt P25090); assay: concentration-dependent FPRL1 ligand displacement – cell-based, FPR counter-screen, fluorescent ligand, dose response (AID 520)
T1 sequence (P25090 whole entry): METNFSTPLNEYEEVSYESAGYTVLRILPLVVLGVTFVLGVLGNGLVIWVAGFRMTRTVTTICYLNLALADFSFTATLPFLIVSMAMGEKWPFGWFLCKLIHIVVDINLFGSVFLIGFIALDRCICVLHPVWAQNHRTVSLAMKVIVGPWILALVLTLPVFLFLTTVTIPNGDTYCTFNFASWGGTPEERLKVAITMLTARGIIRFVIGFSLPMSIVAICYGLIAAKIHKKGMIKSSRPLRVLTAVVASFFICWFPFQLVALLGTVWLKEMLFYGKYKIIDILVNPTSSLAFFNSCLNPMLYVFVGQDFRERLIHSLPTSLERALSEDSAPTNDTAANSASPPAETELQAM

Row | IC50 [µM] | Ki [µM] | SMILES
1 | > 66.7 | > 40.3 | Cc1ccc(C(=O)C2C(=O)C(=O)N(CCCn3ccnc3)C2c2ccc(OC(C)C)cc2)o1 (centres undefined) [1-(3-imidazol-1-ylpropyl)-3-(5-methylfuran-2-yl)carbonyl-4-oxidanyl-2-(4-propan-2-yloxyphenyl)-2H-pyrrol-5-one]
2 | > 66.7 | > 40.3 | CCCOc1ccc(C2C(C(=O)c3ccc(C)o3)C(=O)C(=O)N2CCCn2ccnc2)cc1 (centres undefined) [1-(3-imidazol-1-ylpropyl)-3-(5-methylfuran-2-yl)carbonyl-4-oxidanyl-2-(4-propoxyphenyl)-2H-pyrrol-5-one]
3 | > 66.7 |  | CC(C)OC(=O)c1nnn(-c2nonc2N)c1CN1CCc2ccccc2C1 [1-(4-amino-1,2,5-oxadiazol-3-yl)-5-(3,4-dihydro-1H-isoquinolin-2-ylmethyl)-4-triazolecarboxylic acid propan-2-yl ester]
4 | > 66.7 |  | CCCN=C(S)Nc1ccc(Nc2ccccc2)cc1 [1-(4-anilinophenyl)-3-propyl-thiourea]
5 | > 66.7 |  | CCOC(=O)C1CCN(Cc2ccc(C(=O)OC)cc2)CC1 [1-(4-carbomethoxybenzyl)isonipecotic acid ethyl ester]
6 | > 66.7 | > 40.3 | C=CCOc1ccc(C2C(C(=O)c3cccs3)C(=O)C(=O)N2c2nnc(C)s2)cc1 (centres undefined) [1-(5-methyl-1,3,4-thiadiazol-2-yl)-4-oxidanyl-2-(4-prop-2-enoxyphenyl)-3-thiophen-2-ylcarbonyl-2H-pyrrol-5-one]
7 | > 66.7 | > 40.3 | O=C1C(=O)N(Cc2ccccc2)C(c2cccnc2)C1C(=O)c1ccco1 (centres undefined) [1-Benzyl-4-(furan-2-carbonyl)-3-hydroxy-5-pyridin-3-yl-1,5-dihydro-pyrrol-2-one]
8 | > 66.7 | > 40.3 | O=C1C(=O)N(Cc2ccccc2)C(c2ccncc2)C1C(=O)c1ccco1 (centres undefined) [1-Benzyl-4-(furan-2-carbonyl)-3-hydroxy-5-pyridin-4-yl-1,5-dihydro-pyrrol-2-one]
9 | > 66.7 | > 40.3 | O=C1C(=O)N(Cc2ccccc2)C(c2ccco2)C1C(=O)c1ccco1 (centres undefined) [1-Benzyl-4-(furan-2-carbonyl)-5-furan-2-yl-3-hydroxy-1,5-dihydro-pyrrol-2-one]
10 | > 66.7 | > 40.3 | O=C1C(=O)N(CCOCCO)C(c2cccs2)C1C(=O)c1cccs1 (centres undefined) [1-[2-(2-hydroxyethyloxy)ethyl]-4-oxidanyl-2-thiophen-2-yl-3-thiophen-2-ylcarbonyl-2H-pyrrol-5-one]
11 | > 66.7 | > 40.3 | COc1ccc(CCN2C(=O)C(=O)C(C(=O)c3ccco3)C2c2cccs2)cc1OC (centres undefined) [1-[2-(3,4-Dimethoxy-phenyl)-ethyl]-4-(furan-2-carbonyl)-3-hydroxy-5-thiophen-2-yl-1,5-dihydro-pyrrol-2-one]
12 | > 66.7 |  | OCc1nc2ccccc2n1CC(O)Cn1ccc2ccccc21 (centres undefined) [1-[2-(hydroxymethyl)-1-benzimidazolyl]-3-(1-indolyl)-2-propanol]
13 | > 66.7 |  | COc1ccc2nc(Nc3nc(C)c(C(C)=O)s3)sc2c1 [1-[2-[(6-methoxy-1,3-benzothiazol-2-yl)amino]-4-methyl-1,3-thiazol-5-yl]ethanone]
14 | > 66.7 |  | CN1CCN(CCCNC(=O)Nc2cccc3ccccc23)CC1 [1-[3-(4-methyl-1-piperazinyl)propyl]-3-(1-naphthalenyl)urea]
15 | > 66.7 |  | C=CCn1c(SCCCC)nc(O)cc1=O [1-allyl-2-(butylthio)-6-hydroxy-pyrimidin-4-one]
16 | > 66.7 |  | Cc1c(CNCc2cccs2)c(C(=O)O)c(C)n1Cc1ccccc1 [1-benzyl-2,5-dimethyl-4-[(2-thenylamino)methyl]pyrrole-3-carboxylic acid]
17 | > 66.7 | > 40.3 | Cc1ccc(C(=O)C2C(=O)C(=O)N(Cc3ccccc3)C2c2cccnc2)o1 (centres undefined) [1-benzyl-3-hydroxy-4-[(5-methylfuran-2-yl)carbonyl]-5-(pyridin-3-yl)-2,5-dihydro-1H-pyrrol-2-one]
18 | > 66.7 |  | Cc1cccc(Nc2ccccc2C(=O)NCc2ccco2)c1C [2-(2,3-dimethylanilino)-N-(2-furanylmethyl)benzamide]
19 | > 66.7 | > 40.3 | COc1ccc(OC)c(C2C(C(=O)c3cccs3)C(=O)C(=O)N2c2cc(C)on2)c1 (centres undefined) [2-(2,5-dimethoxyphenyl)-1-(5-methyl-1,2-oxazol-3-yl)-4-oxidanyl-3-thiophen-2-ylcarbonyl-2H-pyrrol-5-one]
20 | > 66.7 | > 40.3 | COc1ccc(OC)c(C2C(C(=O)c3ccco3)C(=O)C(=O)N2CCCN2CCOCC2)c1 (centres undefined) [2-(2,5-dimethoxyphenyl)-3-(furan-2-carbonyl)-4-hydroxy-1-(3-morpholin-4-ylpropyl)-2H-pyrrol-5-one]
21 | > 66.7 |  | CCCOc1ccc2c(=O)c(N3C(=O)c4ccccc4C3=O)c(C)oc2c1 [2-(2-methyl-4-oxidanylidene-7-propoxy-chromen-3-yl)isoindole-1,3-dione]
22 | > 66.7 | > 40.3 | O=C1C(=O)N(c2ncccn2)C(c2ccc(Cl)c(Cl)c2)C1C(=O)c1ccco1 (centres undefined) [2-(3,4-dichlorophenyl)-3-(furan-2-carbonyl)-4-hydroxy-1-pyrimidin-2-yl-2H-pyrrol-5-one]
23 | > 66.7 | > 40.3 | COc1ccc(C2C(C(=O)c3cccs3)C(=O)C(=O)N2c2nnc(C)s2)cc1OC (centres undefined) [2-(3,4-dimethoxyphenyl)-1-(5-methyl-1,3,4-thiadiazol-2-yl)-4-oxidanyl-3-thiophen-2-ylcarbonyl-2H-pyrrol-5-one]
24 | > 66.7 | > 40.3 | COc1ccc(C2C(C(=O)c3ccco3)C(=O)C(=O)N2CCc2ccccc2)cc1OC (centres undefined) [2-(3,4-dimethoxyphenyl)-3-(furan-2-carbonyl)-4-hydroxy-1-(2-phenylethyl)-2H-pyrrol-5-one]
25 | > 66.7 | > 40.3 | COc1ccc(C2C(C(=O)c3ccco3)C(=O)C(=O)N2Cc2cccnc2)cc1OC (centres undefined) [2-(3,4-dimethoxyphenyl)-3-(furan-2-carbonyl)-4-hydroxy-1-(pyridin-3-ylmethyl)-2H-pyrrol-5-one]
26 | > 66.7 | > 40.3 | COc1cc(C2C(C(=O)c3ccco3)C(=O)C(=O)N2c2cc(C)on2)cc(Br)c1O (centres undefined) [2-(3-bromanyl-5-methoxy-4-oxidanyl-phenyl)-3-(furan-2-ylcarbonyl)-1-(5-methyl-1,2-oxazol-3-yl)-4-oxidanyl-2H-pyrrol-5-one]

More lines, now with the values behind:

Row | SMILES | IC50 [µM] | Ki [µM]
27 | O=C(NCCN1CCOCC1)NC1(C(F)(F)F)Oc2ccc(Cl)cc2O1 (centres undefined) | > 66.7 | 
28 | CCn1cc(C(=O)NC2CCC(C)CC2)c(=O)c2cc(S(=O)(=O)N3CCCCC3)ccc21 (centres undefined) | > 66.7 | 
29 | O=c1c2c(nc3c(-c4ccc(Cl)cc4)c[nH]n13)CCCC2 | > 66.7 | 
30 | CCOC(=O)Cc1cc(=O)n2[nH]c(C)c(-c3ccccc3)c2n1 | > 66.7 | 
31 | N[C@@H](Cc1ccc(O)c(I)c1)C(=O)O | > 66.7 | 
32 | COC(=O)c1[nH]c(C)c(C(=O)C2C(=O)C(=O)N(CCN3CCOCC3)C2c2cccs2)c1C (centres undefined) | > 66.7 | > 40.3
33 | CCCc1cc(=O)n2[nH]c(C)c(-c3ccccc3)c2n1 | > 66.7 | 
34 | CC1=NC(C)=C(C#N)C(c2ccc3ncccc3c2)C1C#N (centres undefined) | > 66.7 | > 40.3
35 | O=C(NC1CCCC1)c1sc(=S)n2c1[nH]c(=O)c1ccccc12 | > 66.7 | 
36 | CC(C)OC(=O)c1cc(NC(=O)C2C3CCC(O3)C2C(=O)O)cc(C(=O)OC(C)C)c1 (centres undefined) | > 66.7 | 
37 | CCN(C(=O)Cc1c(C(=O)O)[nH]c2ccccc12)c1cc(OC)ccc1OC | > 66.7 | 
38 | CCOC(=O)Cc1cc(=O)n2[nH]c(C)c(-c3ccc(OC)cc3)c2n1 | > 66.7 | 
39 | CCOC(=O)c1oc2cc(O)ccc2c(=O)c1-c1ccccc1OC | > 66.7 | 
40 | Cc1nc2c(C#N)c(C)[nH]n2c(=O)c1Cc1ccccc1 | > 66.7 | 
41 | CCOC(=O)c1c(-c2ccc(-c3ccccc3)cc2)csc1NC(=O)C1C2CCC(O2)C1C(=O)O (centres undefined) | > 66.7 | 
42 | Nc1ccc(Nc2ccccc2)cc1 | > 66.7 | 
43 | O=c1c(CC[S+]([O-])c2ccccc2)c(O)n(-c2ccccc2)n1-c1ccccc1 (centres undefined) [1,2-Diphenyl-3,5-dioxo-4-(2-phenylsulfinylethyl)pyrazolidine] | > 66.7 | > 40.3
44 | COC(=O)C1(S(=O)(=O)c2cccc3nsnc23)CC1 [1-(2,1,3-benzothiadiazol-4-ylsulfonyl)-1-cyclopropanecarboxylic acid methyl ester] | > 66.7 | 
45 | COc1cccc2cc(C(=O)C3C(=O)C(=O)N(Cc4ccco4)C3c3cccnc3)oc12 (centres undefined) [1-(2-furanylmethyl)-4-hydroxy-3-[(7-methoxy-2-benzofuranyl)-oxomethyl]-2-(3-pyridinyl)-2H-pyrrol-5-one] | > 66.7 | > 40.3
46 | COc1cc(C2C(C(=O)c3cccs3)C(=O)C(=O)N2Cc2ccco2)cc(OC)c1OC (centres undefined) [1-(2-furanylmethyl)-4-hydroxy-3-[oxo(thiophen-2-yl)methyl]-2-(3,4,5-trimethoxyphenyl)-2H-pyrrol-5-one] | > 66.7 | > 40.3
47 | O=C1C(=O)N(Cc2ccco2)C(c2ccccc2)C1C(=O)c1cccs1 (centres undefined) [1-(2-furanylmethyl)-4-hydroxy-3-[oxo(thiophen-2-yl)methyl]-2-phenyl-2H-pyrrol-5-one] | > 66.7 | > 40.3
48 | COCCN1C(=O)C(=O)C(C(=O)c2cccs2)C1c1ccccc1 (centres undefined) [1-(2-methoxyethyl)-4-oxidanyl-2-phenyl-3-thiophen-2-ylcarbonyl-2H-pyrrol-5-one] | > 66.7 | > 40.3
49 | O=C1C(=O)N(CCN2CCOCC2)C(c2ccccc2)C1C(=O)c1cccs1 (centres undefined) [1-(2-morpholin-4-ylethyl)-4-oxidanyl-2-phenyl-3-thiophen-2-ylcarbonyl-2H-pyrrol-5-one] | > 66.7 | > 40.3
50 | CCC(NC(=O)Nc1cc(OC)c(OC)c(OC)c1)(C(F)(F)F)C(F)(F)F [1-(3,4,5-trimethoxyphenyl)-3-[1,1,1-tris(fluoranyl)-2-(trifluoromethyl)butan-2-yl]urea] | > 66.7 | 

Source: BindingDB's records for doi:10.7270/Q2DF6PMF (Nmmlsc, 2007)
